How the values were obtained:
[1] = T1 (longitudinal) relaxivity in buffered saline by spin echo inversion recovery MRI; type: physicochemical; conditions: buffered saline (DPBS)
Experimental: T1 Relaxivity at 1.5 Tesla. The longitudinal relaxivities of CP and Mito-CP were determined using a LX 1.5 T GE Scanner (GE, Waukesha, Wis.) using an 8-channel head rf coil. Solutions of CP and Mito-CP were diluted with Dulbecco's Phosphate Buffered Saline (DPBS) to the following concentrations: 5.0 μM, 10.0 μM, 20.0 μM, 50.0 μM, 100.0 μM, 200.0 μM, 300.0 μM, 500.0 μM, 700.0 μM, 1.0 mM, 2.0 mM, 5.0 mM, 10.0 mM, and 20.0 mM. Longitudinal relaxation times (T1) for each solution and relaxivities (R1) for CP and Mito-CP were calculated using images from a standard spin echo sequence (TE=14 msec, TR=10 sec) at various inversion times (TI=50, 125 msec incrementing by 125 msec to 3500 msec and 4000 msec).
T1 Relaxivity at 3.0 Tesla. The longitudinal relaxivities of CP and Mito-CP were determined using a Signa 3.0 T GE Scanner (GE, Waukesha, Wis.) using a custom rf quadrature coil. Solutions of CP and Mito-CP were diluted with Dulbecco's Phosphate Buffered Saline (DPBS) to the following concentrations: 1.0 μM, 10.0 μM, 100.0 μM, 1.0 mM, 10.0 mM, and 20.0 mM. Longitudinal relaxation times (T1) for each solution and relaxivities (R1) for CP and Mito-CP were calculated using images from a standard spin echo sequence (TE=9 msec, TR=15 sec) at various inversion times (TI=100 msec incrementing by 100 msec to 4000 msec and 50, 150, 1050, 1150 msec).
T1 Relaxivity at 9.4 Tesla. Both solutions were diluted with Dulbecco's Phosphate Buffered Saline (DPBS) to the following concentrations: […], 1.0 mM, 10.0 mM, and 20.0 mM. Longitudinal relaxation times (T1) for each solution and relaxivities (R1) for CP and Mito-CP were calculated using a standard spin echo sequence (TE=9 msec, TR=15,000 msec) at various inversion times (TI=100 msec incrementing by 100 msec to 4000 msec and 50, 150, 1050, 1150 msec).
The longitudinal relaxivities of other nitroxides have been approximate […]. In order to assess the longitudinal relaxivity of CP and Mito-CP, concentrations were prepared with the expectation of this relaxivity. Two separate initial solutions of CP and Mito-CP were prepared. Longitudinal relaxivities were determined for both CP and Mito-CP at three field strengths. Relaxivities were obtained from non-linear fits of standard spin echo inversion recovery images calculated using Matlab.

[2] = tested on: isolated rabbit heart mitochondria; test: In vitro localization in isolated mitochondria, MRI T1 analysis; conditions: for T1 / enhancement of treated mitochondria (uptake): 10 uM, 37° C. 10 minutes, 3.0 T, compared to mitochondria alone
Experimental: The experiment was carried out on a Signa 3.0 T GE scanner (GE, Waukesha, Wis.) using a custom quadrature rf coil with a G10 fiberglass vial rack. Rabbit heart mitochondria were isolated. For verification of MR detectable mitochondrial accumulation of Mito-CP, isolated rabbit mitochondria were separated into […] eppendorf tubes each containing 40 μL of 15 mg/ml mitochondria. Six eppendorf tubes were prepared as indicated in Table 1 below (1-6), and three additional eppendorf tubes were prepared from the supernatant of tubes 4-6 (4b-6b): Note that succinate is needed to activate the mitochondrial respiratory chain, necessary for normal function. All tubes were incubated at 37° C. for 10 minutes. Immediately following incubation, all tubes were centrifuged at 1,000×g for 4 minutes at 4° C. The supernatant was then transferred into another eppendorf tube. The mitochondria in tubes 4-6 were re-suspended with the addition of […] of DPBS and allowed to settle naturally. […] To determine the specificity that Mito-CP has toward mitochondria, the compound carboxy-proxyl (CP) was used for comparison. CP is a 5-member nitroxide ring, depicted in FIG. 1, without the ten chain linking carbons and the triphenylphosphonium. […] These properties make CP an ideal control for specificity of Mito-CP toward mitochondria.

MCF7 cells = test: MTT cell viability assay; type: cell-based; conditions: MCF7, 1-30 uM, 48 h
Experimental: (§1) Cell Culture. MCF7, MDA-MB-231 and MCF10-A cells were obtained from the American Type Culture Collection (ATCC) and cultured at 37° C. in humidified 95% air/5% CO2. MCF7 cells were maintained in MEM-alpha medium containing 10% FBS, L-glutamine (4 mM), penicillin (100 μg/ml), streptomycin (100 μg/ml), non-essential amino acids and sodium pyruvate. MDA-MB-23 were grown in Dulbecco's Modified Eagle's medium (DMEM) containing 10% FBS, L-glutamine (4 mM), penicillin (100 μg/ml), and streptomycin (100 μg/ml). MCF10-A cells were maintained in F-12 media supplemented with 20% FHS, hydrocortisone, cholera toxin, penicillin, streptomycin, and endothelial cell growth factor (ECGF). Typically, the day of the treatment, various concentrations of the nitroxides were added to the cells directly in the media.
(§2) The MTT assay (Sigma-Aldrich, Milwaukee, Wis.) was used to measure cell survival using quantitative colorimetry (λ=570 nm). This assay is based on the capacity of mitochondrial dehydrogenases to reduce MTT to form the insoluble formazan product. Cells were plated in 12-well plates and treated at pre-confluency with Mito-CP and CP (0-30 μM) in their respective media for 48 h. The culture media was removed after treatment, washed gently with DPBS and MTT (5 mg/ml in media) was added to each well, following incubation of the plates for 1 h at 37° C. The MTT solution was removed and the formazan product in each well was dissolved with dimethyl sulfoxide (DMSO). The optical density of each well was measured using an Agilent 8453 UV-Vis spectrometer at 570 nm.
(§3) MCF7, MDA-MB-231 and non-tumorigenic MCF10-A were grown to pre-confluency and treated with either Mito-CP or parent compound CP (1-30 uM) for 48 h and cell viability was measured using the MTT assay.

[3] = tested on: non-tumorigenic MCF10-A breast epithelial cells; test: MTT cell viability assay; type: cell-based; conditions: normal MCF10-A, 1-30 uM, 48 h
Experimental: as §1, §2, §3

MDA-MB-231 cells = test: MTT cell viability assay; type: cell-based; conditions: MDA-MB-231, 1-30 uM, 48 h
Experimental: as §1, §2, §3

[4] = for EPR signal of blood following treatment with ferricyanide: rat blood from catheter after dynamic EPR spectra
[5] = cited from earlier work

(11-(3-carboxy-2,2,5,5-tetramethyl-1-pyrrolidinyloxy)-undecyl)-triphenylphosphonium bromide [Mito-CP]
longitudinal relaxivity R1 ([1]; 1.5 T): 0.1643 ± 0.01314 mM⁻¹ s⁻¹
longitudinal relaxivity R1 ([1]; 3.0 T): 0.2322 ± 0.0151 mM⁻¹ s⁻¹
longitudinal relaxivity R1 ([1]; 9.4 T): 0.2083 ± 0.0431 mM⁻¹ s⁻¹
increase in concentration within the mitochondria compared to the incubating solution ([2]; 10 uM incubating solution): ≥ 140 fold
estimated mitochondrial associated tissue concentration ([2]; 10 uM incubating solution, calculated from relaxivity and T1): 0.143 mM
T1 / enhancement of treated mitochondria (uptake) [2]: shortened T1, indicating uptake
induction of cancer cell apoptosis / cell viability (MTT) (MCF7 cells): induced cancer cell apoptosis
induction of apoptosis / cell viability (MTT) [3]: no influence inducing apoptosis
induction of cancer cell apoptosis / cell viability (MTT) (MDA-MB-231 cells): induced cancer cell apoptosis
EPR signal of blood following treatment with ferricyanide [4]: signal was recovered
time to elimination/reduction from the blood ([4]; rat, following bolus injection): ≤ 30 min
in vivo half-life in blood ([4]; single rat, tail-vein bolus, monoexponential fit after peak): approximately 2 minutes

CC1(C)CC(C(=O)O)C(C)(C)N1[O] (stereo not shown) [CP, carboxy-proxyl, reference compound]
longitudinal relaxivity R1 ([1]; 3.0 T): 0.1546 ± 0.00567 mM⁻¹ s⁻¹
T1 / enhancement of treated mitochondria (uptake) [2]: did not enhance considerably
permeability to lipid membranes [5]: impermeable to lipid membranes
induction of cancer cell apoptosis / cell viability (MTT) (MCF7 cells): did not
induction of apoptosis / cell viability (MTT) [3]: no influence inducing apoptosis
induction of cancer cell apoptosis / cell viability (MTT) (MDA-MB-231 cells): did not
EPR signal of blood following treatment with ferricyanide [4]: not back to its initial level

Reference: patent US8388936B2, “In vivo mitochondrial labeling using positively-charged nitroxide enhanced and gadolinium chelate enhanced magnetic resonance imaging” (MCW Research Foundation, Inc., priority 2008, dated 2013)
